Patent US20240335431A1, “1-H-PYRROLO[2,3-c]PYRIDINE COMPOUNDS” (Acerta Pharma B.V., priority 2023, published 2024)
Like-named read-outs stand apart in the source and are kept apart here.

Tests used:
MOLM-13 cells = assay: Proliferation assay, MOLM-13 (CellTiter-Glo, 7 days); type: cell-based, human
Procedure: (§1) The anti-proliferative effect of compounds was tested in human leukaemia cell lines. The cell lines […] and MV4; 11 each harbor an MLL translocation expressing the MLL fusion proteins MLL-AF9 and MLL-AF4, respectively. Each also express the wildtype protein from the second allele. OCI-AML3 cells carrying the NPM1c gene mutation were also tested.
(§2) MOLM-13 and HEL cells were cultured in RPMI 1640 (Gibco) supplemented with 10% FBS (Gibco) and 1% Pen/Strep (Gibco). MV4; 11 cells were cultured in IMDM (Gibco) supplemented with 10% FBS (Gibco) and 1% Pen/Strep (Gibco). OCI-AML3 cells were cultured in MEMa (Gibco) supplemented with 20% FBS (Gibco) and 1% Pen/Strep (Gibco).
(§3) To assess proliferative effects, 125 MOLM-13 cells, 300 MV4; 11 cells, 75 OCI-AML3 cells, and 200 HEL cells were seeded in 40 μL media per well in 384-well ViewPlates (Perkin Elmer, 6007480). Cell seeding numbers were chosen based on growth curves to ensure linear growth throughout the experiments. Test compounds were added at 3.16-fold serial dilutions in DMSO from […] and DMSO content was normalized to 0.1%. Cells were incubated for 7 days at 37° C. and 5% CO2. A day 0 plate was seeded for each cell line and used as a standard control.
(§4) To measure cell viability, CellTiter-Glo 2.0 (Promega, G9242) luminescent growth indicator was used. 10 μL CellTiter-Glo reagent was added per well. Plates were placed on a plate shaker for 2 minutes in the dark and left to incubate off the shaker for another 8 minutes in the dark, for a total of 10 minutes. Plates were read using an EnVision plate reader (Perkin Elmer) using the Luminescence aperture and a measurement time of 0.1 second.
(§5) Data were analyzed in Genedata Screener®. IC50 values were determined by plotting % inhibition versus log compound concentration and using a one site dose response model. Raw data signals were normalized using 0.1% DMSO media only as background control, 0.1% DMSO with cells no compound as 100% viability (maximum signal), and day 0 0.1% DM with cells no compound as 0% viability (minimum signal).

[1] = Human liver microsomes (HLMs) intrinsic clearance assay; type: in vitro ADME; details: human, microsomes; for HLM CLint: 1 µM, pH 7.4
Procedure: Human liver microsomes (HLMs) were obtained from Corning (UltraPool 150 donors) at a concentration of 20 mg/mL protein. HLMs were stored at −80° C. until use and prior to use, thawed in a 37° C. water bath and then stored on wet ice. DMSO and NADPH were sourced from Solarbio S&T Co Ltd.
2 mL of 10 mM DMSO stock solutions of test compound were added to 198 mL acetonitrile to produce […] concentration. 1325 mL of 20 mg/mL HLM were added to 22260 mL of phosphate buffer to produce the HLM mixture. An 8.334 mg/mL solution of NADPH was prepared in 100 mmol/L pH 7.4 phosphate buffer.
222.5 mL of the HLM mixture and 25 mL of the 10 mM NADPH were added into the incubation plates (1 mL 96 well deep well plate from Thermo). The mixture was vortexed for 10 seconds at 1000 rpm. The incubation plate was pre-warmed in a water bath at 37° C. for 8 minutes. 2.5 mL of the […] stocks of test compound was added to initiate the reaction. The mix was vortexed for 12 seconds at 1000 rpm and incubated at 37° C. The incubation mixture (250 mL) contained 1 mg/mL HLM, 1 mmol/L NADPH and […].
The reaction was quenched by transferring 20 mL of the incubation mixture at 0.5, 5, 10, 15, 20 and 30 minutes into the quenching plate containing 100 mL of cold stop solution (acetonitrile containing internal standards). The plate was vortexed at 800 rpm for 2 minutes.
The quenching plates were centrifuged for 20 minutes at 4000 rpm and 4° C. 40 mL of the supernatant was transferred into a 96-well analysis plate containing 160 mL of water. The analysis plate was shaken at 1000 rpm for 2 minutes and the samples analysed by LC-MS/MS.
Peak areas were determined from extracted ion chromatograms. Percent parent remaining was calculated from peak area of test compound. The slope value, k, was determined by linear regression of the natural logarithm of percent parent remaining versus incubation time. The in vitro half-life (t1/2) was determined from the slope value by the equation: […]
Conversion of the in vitro half-life (min) into in vitro CLint (mL/min/mg proteins) was completed using the equation: […]

HEL cells = assay: Proliferation assay, HEL control cell line (CellTiter-Glo, 7 days); type: cell-based, human; details: Homo sapiens, HEL, 168 h
Procedure: as §1, §2, §3, §4, §5

OCI-AML3 cells = assay: Proliferation assay, OCI-AML3 (CellTiter-Glo, 7 days); type: cell-based, human; details: Homo sapiens, OCI-AML-3, 168 h
Procedure: as §1, §2, §3, §4, §5

MV4;11 cells = assay: Proliferation assay, MV4;11 (CellTiter-Glo, 7 days); type: cell-based, human; details: Homo sapiens, MV4-11, 168 h, read-out: MV-4-11 IC50
Procedure: as §1, §2, §3, §4, §5

hERG = hERG (Homo sapiens (Human), UniProt Q12809); assay: hERG assay 1 (standard), SyncroPatch 384PE; type: cell-based; details: CHO cells, room temperature, up to 40 uM
Procedure: Experiments were performed on the SyncroPatch 384PE (Nanion Technologies) high throughput patch clamp platform at room temperature and used medium resistance chips with 4 patch holes per site. hERG-expressing Chinese hamster ovary K1 (CHO) cell line was used in assay-ready format and kept in liquid nitrogen until use. 2 vials of cells (10×10^6 cells per vial) were thawed and added to 20 ml Hepes-buffered saline solution (HBSS). HBSS comprised 140 mM NaCl, 4 mM KCl, 10 mM HEPES and 5 mM Glucose (pH 7.4). The internal patch clamp solution was KF 120 mM, KCl 20 mM, HEPES 10 mM, EGTA 10 mM, and 25 μM Escin (pH 7.2). After the initial sealing process was complete, a seal enhancer solution comprising HBSS supplemented with 10 mM CaCl2 and 1 mM MgCl2 was applied to cells. The external solution was then exchanged (4 times) for external patch clamp solution comprising NaCl 80 mM, KCl 4 mM, HEPES 10 mM, CaCl2 2 mM, MgCl2 1 mM, glucose 5 mM, and NMDG 60 mM (pH7.4). All compounds were dispensed from initial 10 mM DMSO stocks. An industry standard +60/−40 mV voltage protocol was applied every 15 seconds. Compounds were tested in a 6-point cumulative assay (final DMSO concentration 0.33%), with a concentration range of 139 nM to 40 uM. Data were analyzed in Genedata Screener®. IC50 values were determined by plotting % inhibition versus log compound concentration and using a one site dose response model. Only wells that passed acceptance criteria for this platform were used in this analysis (30 MegaOhm seal resistance, Z prime >0.4 and current size >0.2 nA).

muscarinic M2 receptor = muscarinic M2 receptor (Homo sapiens (Human), UniProt P08172); assay: Muscarinic M2 receptor binding assay (assay 1); details: [3H]AF-DX 384 2 nM, Cheng Prusoff
Procedure: Cell membrane homogenates (60 μg protein) were incubated for 60 minutes at 22° C. with 2 nM [3H]AF-DX 384 in the absence or presence of the test compound in a buffer containing 50 mM Tris-HCl (pH 7.4), 120 mM NaCl, 5 mM KCl, 5 mM MgCl2, and 1 mM EDTA. Nonspecific binding was determined in the presence of 1 μM atropine. Following incubation, the samples were filtered rapidly under vacuum through glass fiber filters (GF/B, Packard) presoaked with 0.3% PEI and rinsed several times with ice-cold 50 mM Tris-HCl using a 96-sample cell harvester (Unifilter, Packard). The filters were dried then counted for radioactivity in a scintillation counter (Topcount, Packard) using a scintillation cocktail (Microscint 0, Packard). The results were expressed as a percent inhibition of the control radioligand specific binding, from which the Ki was calculated. Data were analyzed using software developed at Cerep (Hill software) and validated by comparison with data generated by the commercial software SigmaPlot®4.0 for Windows® (© 1997 by SPSS Inc.). The inhibition constant, Ki, was calculated using the Cheng Prusoff equation:
where L=concentration of ligand in the assay, and Kd=affinity of the ligand for the receptor. The standard reference compound was methoctramine, which was tested in each experiment at several concentrations to obtain a competition curve from which its IC50 was calculated.

hERG, sequence (Q12809 whole entry): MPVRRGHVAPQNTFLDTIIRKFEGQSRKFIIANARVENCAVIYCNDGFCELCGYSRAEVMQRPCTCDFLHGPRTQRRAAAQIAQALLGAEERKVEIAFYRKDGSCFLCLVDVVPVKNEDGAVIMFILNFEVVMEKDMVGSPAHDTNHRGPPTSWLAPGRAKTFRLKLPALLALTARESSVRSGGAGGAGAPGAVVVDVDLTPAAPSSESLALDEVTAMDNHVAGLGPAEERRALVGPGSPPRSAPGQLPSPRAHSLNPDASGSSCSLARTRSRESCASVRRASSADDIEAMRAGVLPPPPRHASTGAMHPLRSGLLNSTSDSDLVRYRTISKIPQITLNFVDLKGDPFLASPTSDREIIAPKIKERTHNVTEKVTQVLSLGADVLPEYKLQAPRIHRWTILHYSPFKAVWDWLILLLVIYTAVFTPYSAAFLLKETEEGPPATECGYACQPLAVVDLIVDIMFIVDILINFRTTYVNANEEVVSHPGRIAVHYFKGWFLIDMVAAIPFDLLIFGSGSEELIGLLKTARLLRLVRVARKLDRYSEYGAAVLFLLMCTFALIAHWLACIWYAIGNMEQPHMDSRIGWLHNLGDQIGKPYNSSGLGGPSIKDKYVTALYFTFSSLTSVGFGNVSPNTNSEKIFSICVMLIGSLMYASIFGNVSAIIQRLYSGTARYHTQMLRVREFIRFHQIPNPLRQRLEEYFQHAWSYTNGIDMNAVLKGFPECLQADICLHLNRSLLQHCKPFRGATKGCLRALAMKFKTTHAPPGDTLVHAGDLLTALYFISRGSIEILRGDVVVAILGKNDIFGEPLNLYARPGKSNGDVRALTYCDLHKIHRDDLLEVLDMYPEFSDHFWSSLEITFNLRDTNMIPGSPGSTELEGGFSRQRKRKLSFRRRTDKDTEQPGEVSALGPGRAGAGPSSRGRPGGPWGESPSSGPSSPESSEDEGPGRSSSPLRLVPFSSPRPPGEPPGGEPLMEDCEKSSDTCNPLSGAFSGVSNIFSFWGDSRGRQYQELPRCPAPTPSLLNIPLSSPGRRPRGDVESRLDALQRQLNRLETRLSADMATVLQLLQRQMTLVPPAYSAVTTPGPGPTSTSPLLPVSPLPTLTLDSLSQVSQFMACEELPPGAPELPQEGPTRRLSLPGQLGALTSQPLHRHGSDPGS
muscarinic M2 receptor, sequence (P08172 whole entry): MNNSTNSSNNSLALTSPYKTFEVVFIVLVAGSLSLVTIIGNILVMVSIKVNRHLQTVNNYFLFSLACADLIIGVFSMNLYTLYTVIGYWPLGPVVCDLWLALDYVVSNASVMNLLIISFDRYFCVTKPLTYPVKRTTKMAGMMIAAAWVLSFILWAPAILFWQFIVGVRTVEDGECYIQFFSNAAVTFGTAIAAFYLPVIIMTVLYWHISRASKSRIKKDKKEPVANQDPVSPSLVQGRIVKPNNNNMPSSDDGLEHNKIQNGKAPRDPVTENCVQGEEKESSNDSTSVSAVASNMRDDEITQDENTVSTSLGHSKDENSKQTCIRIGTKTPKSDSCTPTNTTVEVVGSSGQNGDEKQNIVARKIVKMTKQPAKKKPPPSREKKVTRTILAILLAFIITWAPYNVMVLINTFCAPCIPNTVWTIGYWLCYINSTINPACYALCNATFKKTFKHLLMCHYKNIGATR

SMILES | IC50 (MOLM-13 cells; Homo sapiens, MOLM-13, 168 h) [µM] | microsomal CLint at 1 µM ([1]; pH 7.4, HLM CLint) [µL/min/mg] | IC50 (HEL cells) [µM] | IC50 (MOLM-13 cells) [µM] | HLM CLint [1] [µL/min/mg] | microsomal CLint at 1 µM ([1]; pH 7.4, 1 mg/mL HLM, NADPH, read-out: HLM CLint) [µL/min/mg] | IC50 (OCI-AML3 cells) [µM] | IC50 (MV4;11 cells) [µM] | IC50 (hERG) [µM] | Ki (muscarinic M2 receptor) [µM]
CC(C)N(C(=O)c1cc(F)ccc1-n1cc(C(=O)[C@@H]2CCCN(C(=O)[C@H]3N[C@@H]4CC[C@H]3C4)CC2)c2ccncc21)C(C)C (relative stereo) [Example 45, 2-(3-((R*)-1-((1R,3S,4S)-2-Azabicyclo[2.2.1]heptane-3-carbonyl)azepane-4-carbonyl)-1H-pyrrolo[2,3-c]pyridin-1-yl)-5-fluoro-N,N-diisopropylbenzamide 1·formic acid] | 0.109 | 139 | > 10 |  |  |  |  |  |  | 
CCN(C(=O)c1cc(F)ccc1-n1c(C)c(C(=O)C2CCN(C(=O)[C@@H]3CCC(C)(C)N3)CC2)c2ccncc21)C(C)C (single isomer, unassigned) [Example 50-1] |  |  | > 10 | 2.07 | 183 |  |  |  |  | 
Cc1c(C(=O)[C@@H]2CCN(C(=O)[C@H]3NC[C@@H]4C[C@@H]43)[C@@H](C)C2)c2ccncc2n1-c1ccc(F)cc1C(=O)N(CC(F)(F)F)C(C)C (single isomer, unassigned) [Example 53-1, 2-(3-((2R*,4S*)-1-((1S,2S,5R)-3-Azabicyclo[3.1.0]hexane-2-carbonyl)-2-methylpiperidine-4-carbonyl)-2-methyl-1H-pyrrolo[2,3-c]pyridin-1-yl)-5-fluoro-N-isopropyl-N-(2,2,2-trifluoroethyl)benzamide] |  |  | > 10 | 3.27 | 116 |  |  |  |  | 
Cc1c(C(=O)C2CCN(C(=O)[C@@H]3CCC4(CC4)N3)CC2)c2ccncc2n1-c1ccc(F)cc1C(=O)N1[C@H](C)COC[C@H]1C (single isomer, unassigned) [Example 58-1] |  |  | > 10 | > 10 |  | 128 |  |  |  | 
CC(C)N(C(=O)c1cc(F)ccc1-n1cc(C(=O)C2CN(C(=O)[C@H]3N[C@@H]4CC[C@H]3C4)C2)c2ccnnc21)C(C)C [Example 14, 2-(5-(1-((1R,3S,4S)-2-Azabicyclo[2.2.1]heptane-3-carbonyl)azetidine-3-carbonyl)-7H-pyrrolo[2,3-c]pyridazin-7-yl)-5-fluoro-N,N-diisopropylbenzamide 1·formic acid] | 0.476 | 38 | > 10 |  |  |  | 0.626 | 0.345 |  | 
CCN(C(=O)c1cc(F)ccc1-n1cc(C(=O)C2CCN(C(=O)[C@H]3NC4CCC3CC4)CC2)c2ccncc21)C(C)C [Example 29, (S)-2-(3-(1-(2-Azabicyclo[2.2.2]octane-3-carbonyl)piperidine-4-carbonyl)-1H-pyrrolo[2,3-c]pyridin-1-yl)-N-ethyl-5-fluoro-N-isopropylbenzamide] | 0.058 | 26 | > 10 |  |  |  |  | 0.057 | > 40 | 0.2
C[C@@H]1COC[C@H](C)N1C(=O)c1cc(F)ccc1-n1cc(C(=O)C2CCN(C(=O)[C@H]3N[C@@H]4CC[C@H]3C4)CC2)c2ccncc21 [Example 35, (1-((1R,3S,4S)-2-Azabicyclo[2.2.1]heptane-3-carbonyl)piperidin-4-yl)(1-(2-((3R,5S)-3,5-dimethylmorpholine-4-carbonyl)-4-fluorophenyl)-1H-pyrrolo[2,3-c]pyridin-3-yl)methanone] | 0.297 | 5 | > 10 |  |  |  | 0.412 | 0.146 |  | 
Cc1c(C(=O)C2CCN(C(=O)[C@@H]3CC[C@H](C)N3)CC2)c2ccncc2n1-c1ccc(F)cc1C(=O)N(C(C)C)C(C)C [Example 60, 5-Fluoro-N,N-diisopropyl-2-(2-methyl-3-(1-((2S,5S)-5-methylpyrrolidine-2-carbonyl)piperidine-4-carbonyl)-1H-pyrrolo[2,3-c]pyridin-1-yl)benzamide] | 0.071 | 106 | > 10 |  |  |  |  | 0.088 | > 40 | 
Cc1c(C(=O)C2CCN(C(=O)[C@@H]3CC[C@@H](C)N3)CC2)c2ccncc2n1-c1ccc(F)cc1C(=O)N(C(C)C)C(C)C [Example 61, 5-Fluoro-N,N-diisopropyl-2-(2-methyl-3-(1-((2S,5R)-5-methylpyrrolidine-2-carbonyl)piperidine-4-carbonyl)-1H-pyrrolo[2,3-c]pyridin-1-yl)benzamide] | 0.092 | 83 | > 10 |  |  |  |  | 0.114 | > 40 | 
